Among the data in US20230219965A1 (KSQ Therapeutics, Inc., priority 2020, published 2023) are solubility, IC50 and half-life values, retold here.

The nature of data set [1]: ADME solubility determination in PBS at pH 2.0 and pH 7.4. Particulars: phosphate buffered saline, 25 °C, thermodynamic from solid. It counts as physicochemical. On the procedure:
Certain Compounds of the Disclosure were assessed for ADME solubility at pH 2.0 and pH 7.4.
Stock solutions were prepared by adding each compound to DMSO at a concentration of 10 mM. Samples were prepared by adding 50 μL of each stock solution to separate vials. The vials were loaded onto a 96-well rack and dried. 500 μL of Phosphate Buffered Saline (PBS) pH 7.4 or PBS pH 2.0 were added into each vial. The vials were then shaken at 25° C. and 1,100 rpm for 24 hours.
After 24 hours, the vials were centrifuged at 3220 G and 25° C. for 30 minutes. The supernatant fluid was analyzed by LC-MS/MS against a standard of known concentration. The solubility of each sample was then calculated using the equation below: […]
where DF is the dilution factor.

The target of data set [2] is USP1/UAF1 enzyme (Homo sapiens, UniProt O94782). Kind of data set: USP1/UAF1 deubiquitination assay (ubiquitin-rhodamine 110 substrate). It counts as biochemical. As to conditions: read-out: USP1 IC50 (Ub-Rho). In short, it runs like this: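 Cleavage of 150 nM ubiquitin-rhodamine 110 by 0.05 nM USP1/UAF1 was followed as fluorescence (Ex480/Em540, kinetic, 30 min) in Tris-HCl pH 7.8 buffer with EDTA, BSA, DTT and Tween-20. Compounds, top 10 μM, were preincubated with enzyme 10 min; % inhibition against no-enzyme and DMSO wells gave four-parameter IC50s.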

A short description of data set [3]: Liver microsomal metabolic stability, human liver microsomes (HLM). As to conditions: human, liver microsomes.
The nature of data set [4]: Liver microsomal metabolic stability, rat liver microsomes (RLM). Particulars: rat, liver microsomes, t1/2 (min) in RLM, 1 μM compound, 1 mg/mL microsomes, NADPH.
Where [5] appears, read: pH 2, aqueous buffer, PBS pH 2.0, 25° C., read-out: Solubility at pH 2.0.
The mark [6] stands for this setting: pH 7.4, aqueous buffer, PBS pH 7.4, 25° C., read-out: Solubility at pH 7.4.

Each structure is given as a SMILES string. Where two headings read alike, the source gives them in different places.

Sequence of USP1/UAF1 enzyme (O94782 whole entry): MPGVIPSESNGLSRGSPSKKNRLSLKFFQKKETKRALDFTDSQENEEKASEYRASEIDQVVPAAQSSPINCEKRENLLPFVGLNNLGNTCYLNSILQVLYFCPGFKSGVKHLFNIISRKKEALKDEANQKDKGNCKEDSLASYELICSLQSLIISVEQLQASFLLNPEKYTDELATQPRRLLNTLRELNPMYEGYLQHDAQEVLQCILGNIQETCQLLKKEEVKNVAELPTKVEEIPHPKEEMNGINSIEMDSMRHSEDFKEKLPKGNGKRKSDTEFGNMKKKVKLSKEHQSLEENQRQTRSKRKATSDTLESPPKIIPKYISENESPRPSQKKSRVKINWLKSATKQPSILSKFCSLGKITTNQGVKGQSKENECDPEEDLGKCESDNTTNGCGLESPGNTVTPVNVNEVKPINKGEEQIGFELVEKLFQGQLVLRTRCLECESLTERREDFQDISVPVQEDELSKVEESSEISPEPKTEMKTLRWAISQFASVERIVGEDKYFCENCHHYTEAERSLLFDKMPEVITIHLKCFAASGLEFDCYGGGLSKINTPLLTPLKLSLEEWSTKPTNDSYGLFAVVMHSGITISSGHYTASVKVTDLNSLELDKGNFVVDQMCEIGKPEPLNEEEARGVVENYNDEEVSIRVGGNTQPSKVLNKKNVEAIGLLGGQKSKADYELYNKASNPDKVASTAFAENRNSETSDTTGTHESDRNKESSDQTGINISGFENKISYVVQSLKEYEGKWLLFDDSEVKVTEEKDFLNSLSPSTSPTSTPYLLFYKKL
Sequence of USP1/UAF1 enzyme (Q8TAF3 whole entry partner): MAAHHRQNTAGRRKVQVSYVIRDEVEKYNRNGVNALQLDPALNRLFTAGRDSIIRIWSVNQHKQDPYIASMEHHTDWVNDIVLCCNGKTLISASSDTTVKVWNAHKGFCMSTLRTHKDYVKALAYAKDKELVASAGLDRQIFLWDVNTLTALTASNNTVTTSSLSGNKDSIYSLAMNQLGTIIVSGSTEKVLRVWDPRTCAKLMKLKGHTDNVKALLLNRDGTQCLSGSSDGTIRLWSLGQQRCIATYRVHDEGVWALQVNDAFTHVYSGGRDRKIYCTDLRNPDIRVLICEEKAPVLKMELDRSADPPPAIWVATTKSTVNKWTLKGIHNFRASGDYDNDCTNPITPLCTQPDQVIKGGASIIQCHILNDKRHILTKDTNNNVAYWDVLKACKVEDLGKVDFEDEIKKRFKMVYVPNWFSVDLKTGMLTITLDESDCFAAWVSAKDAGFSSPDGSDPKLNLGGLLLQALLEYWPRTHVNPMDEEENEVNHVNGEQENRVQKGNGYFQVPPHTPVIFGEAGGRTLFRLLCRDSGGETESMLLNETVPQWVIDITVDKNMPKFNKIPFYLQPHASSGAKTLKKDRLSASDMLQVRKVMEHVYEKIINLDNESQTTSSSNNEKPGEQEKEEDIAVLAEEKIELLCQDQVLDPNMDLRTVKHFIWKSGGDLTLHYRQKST

For `COc1ncnc(C2CC2)c1-c1cc2n(n1)CCC(=O)N2Cc1ccc(-n2nc(C(F)(F)F)cc2C)cc1` [Example 4, 2-(4-cyclopropyl-6-methoxypyrimidin-5-yl)-4-(4-(5-methyl-3-(trifluoromethyl)-1H-pyrazol-1-yl)benzyl)-6,7-dihydropyrazolo[1,5-a]pyrimidin-5(4H)-one], the solubility at 24 h in data set [1] (setting [5]) and in data set [1] (setting [6]) was less than 10 µM each time. The IC50 in data set [2] was less than 100 nM. Further, the half-life at 1 μM in data set [3] and in data set [4] was greater than 25 min throughout.

For the molecule `COc1ncnc(C2CC2)c1-c1cc2n(n1)CCC(=O)N2Cc1ccc(-n2nc(C#N)cc2OC)c(F)c1` [Example 8, (4-((2-(4-cyclopropyl-6-methoxypyrimidin-5-yl)-5-oxo-6,7-dihydropyrazolo[1,5-a]pyrimidin-4(5H)-yl)methyl)-2-fluorophenyl)-5-methoxy-1H-pyrazole-3-carbonitrile], the values for the solubility at 24 h in data set [1] (setting [5]) and in data set [1] (setting [6]) were no less than 10 µM and less than 10 µM, respectively. Further, the IC50 in data set [2] was in the range of 100 to 500 nM. For the same molecule, the half-life at 1 μM in data set [3] and in data set [4] was greater than 25 min in each case.

For the molecule `COc1ccnc(C(C)C)c1-c1cc2n(n1)CCC(=O)N2Cc1ccc(-c2nc(C(F)(F)F)cn2C)cc1` [Example 13, 2-(2-isopropyl-4-methoxypyridin-3-yl)-4-(4-(1-methyl-4-(trifluoromethyl)-1H-imidazol-2-yl)benzyl)-6,7-dihydropyrazolo[1,5-a]pyrimidin-5(4H)-one], the solubility at 24 h in data set [1] (setting [5]) and in data set [1] (setting [6]) was no less than 10 µM throughout. Besides, the IC50 in data set [2] is 100 to 500 nM. Moreover, the half-life at 1 μM in data set [3] and in data set [4] was less than 25 min in each case.

Regarding `Cn1cc(C(F)(F)F)nc1-c1ccc(CN2C(=O)CCn3nc(-c4c(Cl)cnn4C4CCC4)cc32)cc1F` [Example 19, 2-(4-chloro-1-cyclobutyl-1H-pyrazol-5-yl)-4-(3-fluoro-4-(1-methyl-4-(trifluoromethyl)-1H-imidazol-2-yl)benzyl)-6,7-dihydropyrazolo[1,5-a]pyrimidin-5(4H)-one], the solubility at 24 h in data set [1] (setting [5]) and in data set [1] (setting [6]) was less than 10 µM in each case. For the same molecule, the IC50 in data set [2] is less than 100 nM. The half-life at 1 μM in data set [3] and in data set [4] was less than 25 min throughout.

Turning to `Cc1cnn(C(C)C)c1-c1cc2n(n1)CC(C)C(=O)N2Cc1ccc(-c2nc(C(F)(F)F)cn2C)cc1` (stereo not drawn) [Example 31, 2-(1-isopropyl-4-methyl-1H-pyrazol-5-yl)-6-methyl-4-(4-(1-methyl-4-(trifluoromethyl)-1H-imidazol-2-yl)benzyl)-6,7-dihydropyrazolo[1,5-α]pyrimidin-5(4H)-one], the solubility at 24 h was no less than 10 µM in data set [1] (setting [5]) and less than 10 µM in data set [1] (setting [6]). Also, the IC50 in data set [2] fell in the range of 100 to 500 nM. Moreover, the half-life at 1 μM in data set [3] and in data set [4] was less than 25 min throughout.

`COc1ncnc(C2CC2)c1-c1cc2n(n1)CC(C)C(=O)N2Cc1ccc(-c2nc(C(F)(F)F)cn2C)cc1` (stereo not shown) [Example 32]: the solubility at 24 h in data set [1] (setting [5]) is no less than 10 µM; in data set [1] (setting [6]), less than 10 µM. Besides, the IC50 in data set [2] is less than 100 nM. The half-life at 1 μM in data set [3] and in data set [4] was greater than 25 min in each case.

For `Cc1cnn(C(C)C)c1-c1nn2c(c1Cl)N(Cc1ccc(-c3nc(C(F)(F)F)cn3C)cc1)C(=O)CC2` [Example 34], the solubility at 24 h in data set [1] (setting [5]) and in data set [1] (setting [6]) was less than 10 µM in each case. Moreover, the IC50 in data set [2] lay in the range of 100 to 500 nM. For the same molecule, the half-life at 1 μM in data set [3] and in data set [4] was less than 25 min throughout.

For `Cc1cnn(C(C)C)c1-c1cc2n(n1)C(C)CC(=O)N2Cc1ccc(-c2nc(C(F)(F)F)cn2C)cc1` (stereo not drawn) [Example 36, 2-(1-isopropyl-4-methyl-1H-pyrazol-5-yl)-7-methyl-4-(4-(1-methyl-4-(trifluoromethyl)-1H-imidazol-2-yl)benzyl)-6,7-dihydropyrazolo[1,5-α]pyrimidin-5(4H)-one], the solubility at 24 h in data set [1] (setting [5]) and in data set [1] (setting [6]) was no less than 10 µM each time. Besides, the IC50 in data set [2] was less than 100 nM. Further, the half-life at 1 μM in data set [3] and in data set [4] was less than 25 min each time.

Consider `Cc1cnn(C(C)C)c1-c1cc2n(n1)CCCN2Cc1ccc(-n2nc(C(F)(F)F)cc2C)cc1` [Example 52, 2-(1-isopropyl-4-methyl-1H-pyrazol-5-yl)-4-(4-(5-methyl-3-(trifluoromethyl)-1H-pyrazol-1-yl)benzyl)-4,5,6,7-tetrahydropyrazolo[1,5-α]pyrimidine], for which the solubility at 24 h in data set [1] (setting [5]) and in data set [1] (setting [6]) was less than 10 µM in each case. Besides, in data set [2], the 50% inhibitory concentration (IC50) is less than 100 nM. The half-life at 1 μM in data set [3] and in data set [4] was less than 25 min each time.

Turning to `Cc1cnn(C(C)C)c1-c1cc2n(n1)CCCN2Cc1ccc(-n2nc(C(F)(F)F)cc2C)c(F)c1` [Example 56], the solubility at 24 h in data set [1] (setting [5]) and in data set [1] (setting [6]) was less than 10 µM in each case. In addition, the IC50 in data set [2] was less than 100 nM. Besides, the half-life at 1 μM in data set [3] and in data set [4] was less than 25 min each time.

Take `CCn1cc(C(F)(F)F)nc1-c1ccc(CN2CCCn3nc(-c4c(Cl)cnn4C(C)C)cc32)cc1F` [Example 60]: the solubility at 24 h in data set [1] (setting [5]) and in data set [1] (setting [6]) was less than 10 µM in each case. Also, the IC50 in data set [2] was less than 100 nM. For the same molecule, the half-life at 1 μM in data set [3] and in data set [4] was less than 25 min in each case.

As for `CCn1cc(C(F)(F)F)nc1-c1ccc(CN2C(=O)CCn3nc(-c4c(Cl)cnn4C(C)C)cc32)cc1F` [Example 77, 2-(4-chloro-1-isopropyl-1H-pyrazol-5-yl)-4-(4-(1-ethyl-4-(trifluoromethyl)-1H-imidazol-2-yl)-3-fluorobenzyl)-6,7-dihydropyrazolo[1,5-α]pyrimidin-5(4H)-one], the solubility at 24 h in data set [1] (setting [5]) and in data set [1] (setting [6]) was less than 10 µM in each case. For the same molecule, in data set [2], the IC50 was less than 100 nM. The half-life at 1 μM in data set [3] is greater than 25 min; in data set [4], less than 25 min.

Consider `Cc1cn(C)nc1-c1ccc(CN2C(=O)CCn3nc(-c4c(Cl)cnn4C(C)C)cc32)cc1` [Example 93], for which the solubility at 24 h in data set [1] (setting [5]) and in data set [1] (setting [6]) was less than 10 µM each time. For the same molecule, the IC50 in data set [2] is less than 100 nM. The half-life at 1 μM in data set [3] and in data set [4] was less than 25 min throughout.

`COCc1cc(C(F)(F)F)nn1-c1ccc(CN2C(=O)CCn3nc(-c4c(Cl)cnn4C(C)C)cc32)cc1` [Example 100]: the solubility at 24 h in data set [1] (setting [5]) and in data set [1] (setting [6]) was less than 10 µM throughout. In addition, the IC50 in data set [2] was less than 100 nM. Further, the half-life at 1 μM in data set [3] and in data set [4] was less than 25 min throughout.

Regarding `COc1cc(C#N)nn1-c1ccc(CN2C(=O)CCn3nc(-c4c(Cl)cnn4C(C)C)cc32)cc1` [Example 106], the solubility at 24 h in data set [1] (setting [5]) and in data set [1] (setting [6]) was less than 10 µM throughout. Further, the IC50 in data set [2] was less than 100 nM. Also, the half-life at 1 μM in data set [3] and in data set [4] was greater than 25 min throughout.

As to `CC(C)n1cc([N+](=O)[O-])nc1-c1ccc(CN2C(=O)CCn3nc(-c4c(Cl)cnn4C(C)C)cc32)cc1` [Example 112], the solubility at 24 h in data set [1] (setting [5]) and in data set [1] (setting [6]) was less than 10 µM throughout. The IC50 in data set [2] is less than 100 nM. In addition, the half-life at 1 μM in data set [3] was greater than 25 min; in data set [4], less than 25 min.

Consider `COc1cc([C@H](C)N2C(=O)CCn3nc(-c4c(OC)ncnc4C4CC4)cc32)ccc1-c1nc(C(F)(F)F)cn1C(C)C` [Example 128], for which the figures for the solubility at 24 h in data set [1] (setting [5]) and in data set [1] (setting [6]) were no less than 10 µM and less than 10 µM, respectively. Besides, the IC50 in data set [2] fell in the range of 100 to 500 nM. Also, the half-life at 1 μM in data set [3] and in data set [4] was less than 25 min throughout.

`CC(C)n1ncc(Cl)c1-c1cc2n(n1)CCC(=O)N2Cc1ccc(-c2cn(C)c(C(F)(F)F)n2)c(F)c1` [Example 130]: the solubility at 24 h in data set [1] (setting [5]) and in data set [1] (setting [6]) was less than 10 µM in each case. In addition, in data set [2], the IC50 lay within 100 to 500 nM. The half-life at 1 μM in data set [3] and in data set [4] was greater than 25 min in each case.

Regarding `CCn1cc(C(F)(F)F)nc1-c1ccc(CN2C(=O)CCn3nc(-c4c(Cl)cnn4C4COC4)cc32)cc1` [Example 154, 2-(4-chloro-1-(oxetan-3-yl)-1H-pyrazol-5-yl)-4-(4-(1-ethyl-4-(trifluoromethyl)-1H-imidazol-2-yl)benzyl)-6,7-dihydropyrazolo[1,5-α]pyrimidin-5(4H)-one], the solubility at 24 h in data set [1] (setting [5]) and in data set [1] (setting [6]) was less than 10 µM each time. The IC50 in data set [2] was less than 100 nM. Also, the half-life at 1 μM in data set [3] and in data set [4] was greater than 25 min in each case.

Turning to `CCn1cc(C(F)(F)F)nc1-c1ccc(CN2C(=O)CCn3nc(-c4c(C#N)cnn4C(C)C)cc32)cc1` [Example 156], the solubility at 24 h in data set [1] (setting [5]) and in data set [1] (setting [6]) was less than 10 µM in each case. The IC50 in data set [2] is less than 100 nM. In addition, the half-life at 1 μM in data set [3] and in data set [4] was greater than 25 min throughout.
